Structures can show the parent of a compound that is named as a salt. Where two headings read alike, the source gives them in different places.
Tested on: Acinetobacter baumannii ATCC17961
Assay: Antimicrobial susceptibility testing: 90% growth inhibitory concentration (IC90) determination in Iso-Sensitest broth, OD600 growth
Format: cell-based
Method in brief: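 Serial twofold dilution, 10 points, e.g. 50–0.097 μM final; ~5×10^(5) CFU/ml; 35±2° C, 16 h; kinetic OD600 every 20 min; IC90 from log-phase inhibition.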

[1] = Acinetobacter baumannii, ATCC17961, 16 h, strain ATCC 17961, OD600 growth over 16 h, read-out: A. baumannii ATCC 17961 IC90
[2] = strain ATCC 17961, OD600 growth over 16 h, read-out: A. baumannii ATCC 17961 IC90
[3] = Acinetobacter baumannii, ATCC17961, 16 h, read-out: A. baumannii ATCC 17961 IC90 (uM), strain ATCC 17961, OD600 growth over 16 h

N[C@@H]1CCN(C(=O)CNC(=O)c2ccc(Nc3nccn4c(-c5c[nH]nc5C(F)(F)F)cnc34)cc2Cl)C1 [Example 137, N-[2-[(3R)-3-aminopyrrolidin-1-yl]-2-oxoethyl]-2-chloro-4-[[3-[3-(trifluoromethyl)-1H-pyrazol-4-yl]imidazo[1,2-a]pyrazin-8-yl]amino]benzamide]
IC90 [1]: 1.86 µM

NC1CC(NC(=O)CNC(=O)c2ccc(Nc3nccn4c(-c5c[nH]nc5C(F)(F)F)cnc34)cc2Cl)C1 (centres unmarked) [Example 138, N-[2-[(3-aminocyclobutyl)amino]-2-oxoethyl]-2-chloro-4-[[3-[3-(trifluoromethyl)-1H-pyrazol-4-yl]imidazo[1,2-a]pyrazin-8-yl]amino]benzamide]
IC90 [1]: 2.01 µM

O=C(CNC(=O)c1ccc(Nc2nccn3c(-c4c[nH]nc4C(F)(F)F)cnc23)cc1Cl)N[C@@H]1CCNC1 [Example 139, 2-chloro-N-[2-oxo-2-[[(3R)-pyrrolidin-3-yl]amino]ethyl]-4-[[3-[3-(trifluoromethyl)-1H-pyrazol-4-yl]imidazo[1,2-a]pyrazin-8-yl]amino]benzamide]
IC90 [1]: 2.8 µM

C[C@H](NC(=O)c1ccc(Nc2nccn3c(-c4c[nH]nc4C(F)(F)F)cnc23)cc1Cl)C(=O)N1CCNCC1 [Example 140, 2-chloro-N-[(2S)-1-oxo-1-piperazin-1-ylpropan-2-yl]-4-[[3-[3-(trifluoromethyl)-1H-pyrazol-4-yl]imidazo[1,2-a]pyrazin-8-ylamino]benzamide formate]
IC90 [2]: 3.31 µM

NC1CN(C(=O)CNC(=O)c2ccc(Nc3nccn4c(-c5c[nH]nc5C(F)(F)F)cnc34)cc2Cl)C1 [Example 141, N-[2-(3-aminoazetidin-1-yl)-2-oxoethyl]-2-chloro-4-[[3-[3-(trifluoromethyl)-1H-pyrazol-4-yl]imidazo[1,2-a]pyrazin-8-yl]amino]benzamide]
IC90 [1]: 4.05 µM

N#CCn1cc(-c2cnc3c(Nc4ccc(C(=O)N5CCC(NC(=O)C6CCNCC6)CC5)c(Cl)c4)nccn23)c(C(F)(F)F)n1 [Example 142, N-[1-[2-chloro-4-[[3-[1-(cyanomethyl)-3-(trifluoromethyl)pyrazol-4-yl]imidazo[1,2-a]pyrazin-8-yl]amino]benzoyl]piperidin-4-yl]piperidine-4-carboxamide]
IC90 [1]: 0.554 µM

N#CCn1cc(-c2cnc3c(Nc4ccc(C(=O)N5CCC(NC(=O)[C@@H]6C[C@@H](O)CN6)CC5)c(Cl)c4)nccn23)c(C(F)(F)F)n1 [Example 143, (2S,4R)-N-[1-[2-chloro-4-[[3-[1-(cyanomethyl)-3-(trifluoromethyl)pyrazol-4-yl]imidazo[1,2-a]pyrazin-8-yl]amino]benzoyl]piperidin-4-yl]-4-hydroxypyrrolidine-2-carboxamide]
IC90 [1]: 0.555 µM

O=C(NC1CCN(C(=O)c2ccc(Nc3nccn4c(-c5c[nH]nc5C(F)(F)F)cnc34)cc2Cl)CC1)N[C@H]1CCNC1 [Example 144, 1-[1-[2-choro-4-[[3-[3-(trifluoromethyl)-1H-pyrazol-4-yl]imidazo[1,2-a]pyrazin-8-yl]amino]benzoyl]piperidin-4-yl]-3-[(3S)-pyrrolidin-3-yl]urea]
IC90 [2]: 0.335 µM

CCc1cc(Nc2nccn3c(-c4c[nH]nc4C(F)(F)F)cnc23)ccc1C(=O)N[C@H](C)CN [Example 145, N-[(2R)-1-aminopropan-2-yl]-2-ethyl-4-[[3-[3-(trifluoromethyl)-1H-pyrazol-4-yl]imidazo[1,2-a]pyrazin-8-yl]amino]benzamide trifluoroacetate]
IC90 [1]: 1.9 µM

C#CCn1cc(-c2cnc3c(Nc4ccc(C(=O)NCCOC[C@H](C)N)c(CC)c4)nccn23)c(C(F)(F)F)n1 [Example 147, N-[2-[(2S)-2-aminopropoxy]ethyl]-2-ethyl-4-[[3-[1-prop-2-ynyl-3-(trifluoromethyl)pyrazol-4-yl]imidazo[1,2-a]pyrazin-8-yl]amino]benzamide]
IC90 [1]: 0.049 µM

C=CCn1cc(-c2cnc3c(Nc4ccc(C(=O)NCCOC[C@@H](C)N)c(CC)c4)nccn23)c(C(F)(F)F)n1 [Example 148, N-[2-[(2R)-2-aminopropoxy]ethyl]-2-ethyl-4-[[3-[1-prop-2-enyl-3-(trifluoromethyl)pyrazol-4-yl]imidazo[1,2-a]pyrazin-8-yl]amino]benzamide]
IC90 [2]: 0.084 µM

C#CCn1cc(-c2cnc3c(Nc4ccc(C(=O)NCCOC[C@@H](C)N)c(CC)c4)nccn23)c(C(F)(F)F)n1 [Example 149, N-[2-[(2R)-2-aminopropoxy]ethyl]-2-ethyl-4-[[3-[1-prop-2-ynyl-3-(trifluoromethyl)pyrazol-4-yl]imidazo[1,2-a]pyrazin-8-yl]amino]benzamide]
IC90 [1]: 0.102 µM

CCc1cc(Nc2nccn3c(-c4cn(CCF)nc4C(F)(F)F)cnc23)ccc1C(=O)NCCOC[C@@H](C)N [Example 150, N-[2-[(2R)-2-aminopropoxy]ethyl]-2-ethyl-4-[[3-[1-(2-fluoroethyl)-3-(trifluoromethyl)pyrazol-4-yl]imidazo[1,2-a]pyrazin-8-yl]amino]benzamide]
IC90 [1]: 0.173 µM

CCc1cc(Nc2nccn3c(-c4cn(CC(F)F)nc4C(F)(F)F)cnc23)ccc1C(=O)NCCOC[C@@H](C)N [Example 151, N-[2-[(2R)-2-aminopropoxy]ethyl]-4-[[3-[1-(2,2-difluoroethyl)-3-(trifluoromethyl)pyrazol-4-yl]imidazo[1,2-a]pyrazin-8-yl]amino]-2-ethylbenzamide]
IC90 [1]: 0.204 µM

CCc1cc(Nc2nccn3c(-c4cn(CC#N)nc4C(F)(F)F)cnc23)ccc1C(=O)NCCOC[C@H](C)N [Example 152, N-[2-[(2S)-2-aminopropoxy]ethyl]-4-[[3-[1-(cyanomethyl)-3-(trifluoromethyl)pyrazol-4-yl]imidazo[1,2-a]pyrazin-8-yl]amino]-2-ethylbenzamide]
IC90 [1]: 0.241 µM

CCc1cc(Nc2nccn3c(-c4cn(CC(F)F)nc4C(F)(F)F)cnc23)ccc1C(=O)NCCOC[C@H](C)N [Example 153, N-[2-[(2S)-2-aminopropoxy]ethyl]-4-[[3-[1-(2,2-difluoroethyl)-3-(trifluoromethyl)pyrazol-4-yl]imidazo[1,2-a]pyrazin-8-yl]amino]-2-ethylbenzamide]
IC90 [1]: 0.311 µM

O=C(NC1CCN(C(=O)c2ccc(Nc3nccn4c(-c5c[nH]nc5C(F)(F)F)cnc34)cc2Cl)CC1)[C@@H]1C[C@@H](O)CN1 [Example 154, (2S,4R)-N-[1-[2-chloro-4-[[3-[3-(trifluoromethyl)-1H-pyrazol-4-yl]imidazo[1,2-a]pyrazin-8-yl]amino]benzoyl]piperidin-4-yl]-4-hydroxypyrrolidine-2-carboxamide]
IC90 [1]: 0.391 µM

C#CCn1cc(-c2cnc3c(Nc4ccc(C(=O)NCCCNCCCCNCCCN)c(CC)c4)nccn23)c(C(F)(F)F)n1 [Example 155, N-[3-[4-(3-aminopropylamino)butylamino]propyl]-2-ethyl-4-[[3-[1-prop-2-ynyl-3-(trifluoromethyl)pyrazol-4-yl]imidazo[1,2-a]pyrazin-8-yl]amino]benzamide trifluoroacetate]
IC90 [3]: 0.585 µM

CCc1cc(Nc2nccn3c(-c4cn(CC#N)nc4C(F)(F)F)cnc23)ccc1C(=O)NCCOC[C@@H](C)N [Example 156, N-[2-[(2R)-2-aminopropoxy]ethyl]-4-[[3-[1-(cyanomethyl)-3-(trifluoromethyl)pyrazol-4-yl]imidazo[1,2-a]pyrazin-8-yl]amino]-2-ethylbenzamide]
IC90 [1]: 0.627 µM

O=C(NC1CCN(C(=O)c2ccc(Nc3nccn4c(-c5c[nH]nc5C(F)(F)F)cnc34)cc2Cl)CC1)C1CCNCC1 [Example 157, N-[1-[2-chloro-4-[[3-[3-(trifluoromethyl)-1H-pyrazol-4-yl]imidazo[1,2-a]pyrazin-8-yl]amino]benzoyl]piperidin-4-yl]piperidine-4-carboxamide]
IC90 [1]: 0.969 µM

CCc1cc(Nc2nccn3c(-c4cn(CCF)nc4C(F)(F)F)cnc23)ccc1C(=O)NCCOC[C@H](C)N [Example 158, N-[2-[(2S)-2-aminopropoxy]ethyl]-2-ethyl-4-[[3-[1-(2-fluoroethyl)-3-(trifluoromethyl)pyrazol-4-yl]imidazo[1,2-a]pyrazin-8-yl]amino]benzamide]
IC90 [1]: 4.03 µM

COc1ccc(Cn2cc(-c3cnc4c(Nc5ccc(C(=O)N6CCNCC6)c(Cl)c5)nccn34)c(C(F)(F)F)n2)nn1 [Example 159, [2-chloro-4-[[3-[1-[(6-methoxypyridazin-3-yl)methyl]-3-(trifluoromethyl)pyrazol-4-yl]imidazo[1,2-a]pyrazin-8-yl]amino]phenyl]-piperazin-1-ylmethanone formate]
IC90 [3]: 0.408 µM

Cc1cnc(Cn2cc(-c3cnc4c(Nc5ccc(C(=O)N6CCNCC6)c(Cl)c5)nccn34)c(C(F)(F)F)n2)nc1 [Example 160, [2-chloro-4-[[3-[1-[(5-methylpyrimidin-2-yl)methyl]-3-(trifluoromethyl)pyrazol-4-yl]imidazo[1,2-a]pyrazin-8-yl]amino]phenyl]-piperazin-1-ylmethanone formate]
IC90 [3]: 0.63 µM

Cc1ccnc(Cn2cc(-c3cnc4c(Nc5ccc(C(=O)N6CCNCC6)c(Cl)c5)nccn34)c(C(F)(F)F)n2)n1 [Example 161, [2-chloro-4-[[3-[1-[(4-methylpyrimidin-2-yl)methyl]-3-(trifluoromethyl)pyrazol-4-yl]imidazo[1,2-a]pyrazin-8-yl]amino]phenyl]-piperazin-1-ylmethanone formate]
IC90 [3]: 0.764 µM

O=C(NCC(=O)N1CCNCC1)c1ccc(Nc2nccn3c(-c4c[nH]nc4C(F)(F)F)cnc23)cc1Cl [Example 162, 2-chloro-N-(2-oxo-2-piperazin-1-ylethyl)-4-[[3-[3-(trifluoromethyl)-1H-pyrazol-4-yl]imidazo[1,2-a]pyrazin-8-yl]amino]benzamide]
IC90 [1]: 1.22 µM

Cc1ccc(Cn2cc(-c3cnc4c(Nc5ccc(C(=O)N6CCNCC6)c(Cl)c5)nccn34)c(C(F)(F)F)n2)nn1 [Example 163, [2-chloro-4-[[3-[1-[(6-methylpyridazin-3-yl)methyl]-3-(trifluoromethyl)pyrazol-4-yl]imidazo[1,2-a]pyrazin-8-yl]amino]phenyl]-piperazin-1-ylmethanone formate]
IC90 [3]: 1.27 µM

— US20230203043A1, “NOVEL IMIDAZOPYRAZINE DERIVATIVES” (Hoffmann-La Roche Inc., priority 2020, published 2023)
